The source made the active and inactive calls. No cut-off for these calls is given here.
Columns and labels:
[1] = Toxicity in BALB/c mouse assessed as increase in creatinine level at 20 mg/kg, po administered for 5 days and measured after 1 day by colorimetric assay; assay type: organism-based; details: in vivo, 120 h, time 5 day
[2] = Toxicity in BALB/c mouse assessed as increase in creatinine level at 20 mg/kg, po administered for 5 days and measured after 14 days by colorimetric assay; assay type: organism-based; details: in vivo, 120 h, time 5 day
[3] = Toxicity in BALB/c mouse assessed as increase in liver weight at 20 mg/kg, po administered for 5 days and measured after 1 day; assay type: organism-based; details: in vivo, 120 h, time 5 day
[4] = Toxicity in BALB/c mouse assessed as hydropic degeneration at 20 mg/kg, po administered for 5 days and measured after 1 day by hematoxylin-eosin staining based microscopic analysis; assay type: organism-based; details: in vivo, 120 h, time 5 day
Toxoplasma gondii [5] = test: Antiparasitic activity against Toxoplasma gondii RH infected in BALB/c mouse assessed as decrease in IFNgamma level in serum at 20 mg/kg, po administered every 24 hrs for 5 days starting from 24 hrs post infection by ELISA method; assay type: functional, organism-based; details: time 5.0 day
[6] = Toxicity in BALB/c mouse assessed as increase in serum AST level at 20 mg/kg, po administered for 5 days and measured on day 1 and day 14 by ELISA method; assay type: organism-based; details: in vivo, 120 h, time 5 day
[7] = Toxicity in BALB/c mouse assessed as increase in serum ALT level at 20 mg/kg, po administered for 5 days and measured on day 1 and day 14 by ELISA method; assay type: organism-based; details: in vivo, 120 h, time 5 day
[8] = Toxicity in BALB/c mouse assessed as disseminated necrosis of hepatocytes at 20 mg/kg, po administered for 5 days and measured after 1 day by hematoxylin-eosin staining based microscopic analysis; assay type: organism-based; details: in vivo, 120 h, time 5 day
Toxoplasma gondii [9] = test: Antiparasitic activity against Toxoplasma gondii RH infected in BALB/c mouse assessed as reduction of daughter tachyzoites in blood at 20 mg/kg, po administered every 24 hrs for 5 days starting from 24 hrs post infection by real-time qPCR analysis; assay type: functional, organism-based; details: time 5.0 day
Toxoplasma gondii [10] = test: Antiparasitic activity against Toxoplasma gondii RH infected in BALB/c mouse assessed as prolongation of animal survival at 20 mg/kg, po administered every 24 hrs for 5 days starting from 24 hrs post infection by Kaplan-Meier method; assay type: functional, organism-based; details: time 5.0 day
[11] = Toxicity in BALB/c mouse assessed as changes in liver weight at 20 mg/kg, po administered for 5 days and measured after 14 days; assay type: organism-based; details: in vivo, 120 h, time 5 day
Toxoplasma gondii [12] = test: Antiparasitic activity against Toxoplasma gondii RH infected in BALB/c mouse assessed as reduction in number of bradyzoite gene copies in muscles at 20 mg/kg, po administered every 24 hrs for 5 days starting from 24 hrs post infection by real-time qPCR analysis; assay type: functional; details: time 5 day
[13] = Toxicity in BALB/c mouse assessed as changes in size of hepatocyte nuclei at 20 mg/kg, po administered for 5 days and measured after 1 day by hematoxylin-eosin staining based microscopic analysis; assay type: organism-based; details: hepatocytes, 120 h, time 5 day
Toxoplasma gondii [14] = test: Antiparasitic activity against Toxoplasma gondii DX infected in C3H/HeOuJ mouse assessed as prolongation of survival at 20 mg/kg, po administered every 24 hrs for 5 days starting from 24 hrs post infection by Kaplan-Meier method; assay type: functional, organism-based; details: time 5.0 day
Toxoplasma gondii [15] = test: Antiparasitic activity against Toxoplasma gondii RH infected in BALB/c mouse assessed as reduction of bradyzoite gene copies in brain at 20 mg/kg, po administered every 24 hrs for 5 days starting from 24 hrs post infection by real-time qPCR analysis; assay type: functional, organism-based; details: time 5.0 day

## CCc1nc(N)nc(N)c1-c1ccc(Cl)cc1 [PYRIMETHAMINE]
[1]
  Activity: Toxic
[2]
  Activity: Toxic
[3]
  Activity: Toxic
[4]
  Activity: Toxic
Toxoplasma gondii [5]
  Activity: Active
[6]
  Activity: Toxic
[7]
  Activity: Toxic
[8]
  Activity: Toxic
Toxoplasma gondii [9]
  Activity: Active
Toxoplasma gondii [10]
  Activity: Active
[11]
  Activity: Non-Toxic
Toxoplasma gondii [12]
  Activity: 14
[13]
  Activity: Toxic
Toxoplasma gondii [14]
  Activity: Active
Toxoplasma gondii [15]
  Activity: Active
